Source: patent US3985737A, “3-Sulfonate esters of cephalosporin” (Eli Lilly and Company, priority 1974, dated 1976)
≈ marks a conversion by molar mass, not a printed value. Where two headings read alike, the source gives them in different places.

Columns and labels:
Pseudomonas aeruginosa = assay: Standard Gradient-Plate method, MIC vs. Pseudomonas aeruginosa; format: cell-based; settings: in vitro, read-out: Minimum Inhibitory Concentration
Excerpt: (§1) The 7-acylamido-3-cephem-3-sulfonate esters of the formula I wherein R1 is hydrogen (the free acid form) are useful antibiotic substances which are useful in combatting infections attributable to gram-positive and gram-negative bacteria and also penicillin resistant staphylococci. The antibacterial activity of these sulfonate esters is illustrated by the following in vitro test data obtained with representative compounds. In Table I below, the minimum inhibitory concentration (MIC) for representative compounds against gram-negative bacteria is presented. The data were obtained by the standard Gradient-Plate method.

Aerobacter aerogenes = assay: Standard Gradient-Plate method, MIC vs. Aerobacter aerogenes; format: cell-based; settings: Klebsiella aerogenes, in vitro, read-out: Minimum Inhibitory Concentration
Excerpt: as §1

Electrometric titration = format: physicochemical; settings: 80% aqueous methyl cellosolve, 80 percent aqueous methyl cellosolve
Excerpt: Electrometric titration (80 percent aqueous methyl cellosolve) pKa 3.9.
Electrometric titration in 80 percent aqueous methyl cellosolve pKa 4.15.
Electrometric titration in 80 percent aqueous methyl cellosolve pKa 4.75.
Electrometric titration (80 percent aqueous methyl cellosolve) pKa 4.4.
Electrometric titration (80 percent aqueous methyl cellosolve) pKa 4.25.

Salmonella heidelberg = assay: Standard Gradient-Plate method, MIC vs. Salmonella heidelberg; format: cell-based; settings: Salmonella enterica, in vitro, read-out: Minimum Inhibitory Concentration
Excerpt: as §1

Serratia marcescens = assay: Standard Gradient-Plate method, MIC vs. Serratia marcescens; format: cell-based; settings: in vitro, read-out: Minimum Inhibitory Concentration
Excerpt: as §1

Escherichia coli = assay: Standard Gradient-Plate method, MIC vs. Escherichia coli; format: cell-based; settings: in vitro, read-out: Minimum Inhibitory Concentration
Excerpt: as §1

Shigella sp. = assay: Standard Gradient-Plate method, MIC vs. Shigella sp.; format: cell-based; settings: in vitro, read-out: Minimum Inhibitory Concentration
Excerpt: as §1

Klebsiella pneumoniae = assay: Standard Gradient-Plate method, MIC vs. Klebsiella pneumoniae; format: cell-based; settings: in vitro, read-out: Minimum Inhibitory Concentration
Excerpt: as §1

SMILES | MIC (Pseudomonas aeruginosa) | MIC (Aerobacter aerogenes) | pKa (Electrometric titration; read-out: pKa) | MIC (Salmonella heidelberg) | MIC (Serratia marcescens) | MIC (Escherichia coli) | MIC (Shigella sp.) | MIC (Klebsiella pneumoniae) | pKa (Electrometric titration; second of two pKa values, read-out: pKa (second value))
CS(=O)(=O)OC1=C(C(=O)O)N2C(=O)C(NC(=O)Cc3cccs3)[C@H]2SC1 (stereo partly shown) [Compound 1, 7-[2-(2-thienyl)acetamido]-3-methylsulfonyloxy-3-cephem-4-carboxylic acid] | > 200 µg/mL | 3.5 µg/mL (≈ 8.36 µM) | 3.9 | 2 µg/mL (≈ 4.78 µM) | 110 µg/mL (≈ 263 µM) | 11 µg/mL (≈ 26.3 µM) | 10.7 µg/mL (≈ 25.6 µM) | 6.5 µg/mL (≈ 15.5 µM) | –
CCS(=O)(=O)OC1=C(C(=O)O)N2C(=O)C(NC(=O)Cc3cccs3)[C@H]2SC1 (stereo partly shown) [Compound 2, 7-[2-(2-thienyl)acetamido]-3-ethylsulfonyloxy-3-cephem-4-carboxylic acid] | > 200 µg/mL | 3.5 µg/mL (≈ 8.09 µM) | 4.15 | 4 µg/mL (≈ 9.25 µM) | 120 µg/mL (≈ 277 µM) | 13.1 µg/mL (≈ 30.3 µM) | 7 µg/mL (≈ 16.2 µM) | 7 µg/mL (≈ 16.2 µM) | –
CCCCS(=O)(=O)OC1=C(C(=O)O)N2C(=O)C(NC(=O)Cc3cccs3)[C@H]2SC1 (stereo partly shown) [Compound 3, 7-[2-(2-thienyl)acetamido]-3-n-butylsulfonyloxy-3-cephem-4-carboxylic acid] | > 200 µg/mL | 6 µg/mL (≈ 13 µM) | 4.75 | 6 µg/mL (≈ 13 µM) | 180 µg/mL (≈ 391 µM) | 8.8 µg/mL (≈ 19.1 µM) | 6.5 µg/mL (≈ 14.1 µM) | 5.5 µg/mL (≈ 11.9 µM) | –
Cc1ccc(S(=O)(=O)OC2=C(C(=O)O)N3C(=O)C(NC(=O)Cc4cccs4)[C@H]3SC2)cc1 (stereo partly shown) [Compound 4, 7-[2-(2-thienyl)acetamido]-3-(p-toluenesulfonyloxy)-3-cephem-4-carboxylic acid] | > 200 µg/mL | 16.5 µg/mL (≈ 33.4 µM) | 4.4 | 125 µg/mL (≈ 253 µM) | > 200 µg/mL | 16.3 µg/mL (≈ 33 µM) | 19.5 µg/mL (≈ 39.4 µM) | 9.3 µg/mL (≈ 18.8 µM) | –
O=C(Cc1cccs1)NC1C(=O)N2C(C(=O)O)=C(OS(=O)(=O)c3ccc(F)cc3)CS[C@H]12 (stereo partly shown) [Compound 5, 7-[2-(2-thienyl)acetamido]-3-(4-fluorobenzenesulfonyloxy)-3-cephem-4-carboxylic acid] | > 200 µg/mL | 12 µg/mL (≈ 24.1 µM) | 4.25 | 13.5 µg/mL (≈ 27.1 µM) | > 200 µg/mL | 24 µg/mL (≈ 48.1 µM) | 16.5 µg/mL (≈ 33.1 µM) | 16.3 µg/mL (≈ 32.7 µM) | –
CS(=O)(=O)OC1=C(C(=O)O)N2C(=O)C(NC(=O)[C@H](N)c3ccccc3)C2SC1 (stereo partly drawn) [Compound 6, 7-(D-phenylglycylamido)-3-methylsulfonyloxy-3-cephem-4-carboxylic acid] | > 200 µg/mL | 8.8 µg/mL (≈ 20.6 µM) | 3.6 | 7 µg/mL (≈ 16.4 µM) | 100 µg/mL (≈ 234 µM) | 19.5 µg/mL (≈ 45.6 µM) | 13.6 µg/mL (≈ 31.8 µM) | 5.5 µg/mL (≈ 12.9 µM) | 6.75
